Here are results for one molecule from EPA's ToxValDB 9.5 (doi:10.2903/j.efsa.2008.120r).

For data set [1], the system named is Canidae. Particulars: oral, Dog Other, body weight.
Data set [2] deals with Daphnia magna. The settings on record: chronic/long-term; duration: 21 days; reproduction.
Data set [3] concerns Coturnix japonica. Particulars: reproduction developmental.
Data set [4] concerns Oncorhynchus mykiss.
The test system of data set [5] is Colinus virginianus. The settings on record: oral; for LD50: mortality.
The subject of data set [6] is Anas platyrhynchos. Particulars: oral; for LD50: mortality.
Data set [7] deals with Mus musculus. The settings on record: acute; mortality.
Data set [8] has as its system Rattus norvegicus.
Data set [9] concerns Tagia sp. The settings on record: acute; duration: 14 days; mortality.
Data set [10] has as its system Apis mellifera. The settings on record: acute, mortality.
Data set [11] relates to Typhlodromus pyri. Briefly: LR50; higher = less toxic. Particulars: not reported; mortality.
Where [12] appears, read: short-term, duration: 5 days, feed.

In brackets after ≈: the same amount, converted by molar mass.

Turning to `COc1cc(OC)nc(NC(=O)NS(=O)(=O)c2ncccc2C(=O)N(C)C)n1` [Nicosulfuron], the NOAEL in data set [1] (chronic, duration: 1 years) was found to be 200 mg/kg-day; in data set [1] (short-term, duration: 28 days), 200 mg/kg-day; in [1] (subchronic, duration: 90 days), 200 mg/kg-day; in data set [8] (chronic, duration: 2 years, hematological) it was 199 mg/kg-day; in [8] (reproduction developmental, M), 3860 mg/kg-day; in data set [8] (reproduction developmental, mortality) it was 4400 mg/kg-day. In addition, the NOEC came out at 5.2 mg/L in data set [2]; 171 mg/kg-day in [3]; 10 mg/L in data set [4] (chronic/long-term, duration: 28 days, growth). The LC50 in [4] (acute, duration: 96 hours, mortality) was 65.7 µg/mL (≈ 160 µM); in [9], over 1000 mg/kg; in data set [10] (oral, feed) it was over 1000 µg/piece. Also, the LD50 is over 1600 mg/kg-day in data set [5] (acute, duration: 5 days, diet); over 2000 mg/kg-day in data set [5] (acute); over 2000 mg/kg-day in data set [6] (acute, unspecified); over 911 mg/kg-day in data set [6] (setting [12]); over 5000 mg/kg-day in [7]; over 5000 mg/kg-day in data set [8] (acute, mortality). This molecule yielded an LD50 in data set [10] (dermal) of 76 µg/piece. Besides, the NOEL in data set [5] (acute) worked out at 2000 mg/kg-day; in data set [5] (short-term, duration: 5 days, diet), 1600 mg/kg-day; in data set [6] (acute, unspecified), 2000 mg/kg-day; in [6] (setting [12]), 911 mg/kg-day. Moreover, the LR50 in data set [11] is 60 g/ha.
